Patent publication US5456247A, “Method for delivering drugs soluble in a vaporization vehicle” (priority 1993, dated 1995)
Read-outs that look alike come from different tables or passages of the source.

Assays:
[1] = Volatilization of drugs with a vaporization vehicle; type: physicochemical; conditions: menthol as vaporization vehicle
Description: The amount of vaporization vehicle depends on which drug is delivered. […] Other potential vaporization vehicles include carvone, menthone and camphor.

[2] = system: bordetella avium; conditions: turkeys; route not stated; cited from earlier work
[3] = rat, in vivo, inhaled or intranasal, 0.05 h
Protocol: Tests were conducted to study the entry of sulfa drugs into the blood and lungs of test subjects. […] Samples of sulfamethazine and menthol (0.285 grams equal portions of each) were weighed and heated at 180° C. in a distillation flask in the volatile chamber. Rats were placed in the treatment chamber 9. […] An air pump was used to circulate air through the volatile chamber 10 to the treatment chamber. The rats' condition, temperature of the flask and vapor flow into the treatment chamber 9 were monitored. After three minutes of inhalation therapy the air flow was shut off and the rats were removed from treatment chamber 9. Blood and lung tissue were removed for testing.

[4] = in vivo; conditions: inhaled or intranasal
Protocol: (§1) The levels that were taken orally were administered for a period of time on the order of days, while inhalation treatments were for a period of time on the order of minutes in length (five minutes).

[5] = in vivo; conditions: rat, inhaled or intranasal
Protocol: Tests were conducted to study the entry of sulfa drugs into the blood and lungs of test subjects. […] Rats were placed in the treatment chamber 9. […] An air pump was used to circulate air through the volatile chamber 10 to the treatment chamber. The rats' condition, temperature of the flask and vapor flow into the treatment chamber 9 were monitored. After three minutes of inhalation therapy the air flow was shut off and the rats were removed from treatment chamber 9. Blood and lung tissue were removed for testing.

[6] = in vivo
Protocol: as §1

Compound | need for menthol for volatilization [1] | success at treating bordetella avium disease [2] | Lungs: sulfamethazine level [3] [ppb] | concentration at 25 min [4] [ng/g] | Lungs: sulfamethazine level ([5]; 0.05 h) | concentration at 0.05 h ([5]; Lungs: sulfamethazine level) [ng/g] | sulfamethazine level in lung tissue, inhalation, immediate ([6]; 0 min) [ppm] | sulfamethazine level in lung tissue, oral ([6]; po) [ppm]
gentamicin | can be volatilized with little or no menthol | successful at treating the disease | – | – | – | – | – | –
Cc1cc(C)nc(NS(=O)(=O)c2ccc(N)cc2)n1 [sulfamethazine] | – | – | 50 | 100 | ~ 0.1 ppm | ~100 | 0.2 | 0.1
Cc1cc(NS(=O)(=O)c2ccc(N)cc2)no1 [sulfamethoxazole] | – | successful at treating the disease | – | – | – | – | – | –
